In general, IC50 refers to the concentration at which inhibition is half-maximal.

For 17 compounds, Activity and IC50 results are on record in ChEMBL document CHEMBL3813605, “Jatrophane and ingenane-type diterpenoids from Euphorbia kansui inhibit the LPS-induced NO production in RAW 264.7 cells” (Bioorg Med Chem Lett, 2016).

For series [1], the system named is RAW264.7. Put plainly: Cytotoxicity against mouse RAW264.7 cells assessed as reduction in cell viability by MTT assay. The format is cell-based. (In general: Tetrazolium dyes change colour on reduction, which living cells bring about.)
In series [2] the test system is RAW264.7. Nature of the series: Antiinflammatory activity in mouse RAW264.7 cells assessed as inhibition of LPS-induced NO production incubated for 24 hrs by Griess method. The format is functional, cell-based. To be noted: RAW264.7, 24 h. On the technique in general: Nitrite, measured by Griess reagent, commonly stands in for NO production.

Turning to `C=C1[C@H](OC(=O)c2ccccc2)[C@H]2[C@@H](OC(C)=O)[C@](C)(O)[C@@H](OC(C)=O)[C@]2(O)C(=O)[C@@H](C)/C=C/C(C)(C)C(=O)[C@H](OC(C)=O)[C@H]1OC(=O)c1ccccc1`, in the series with RAW264.7 [1], the Activity entry is listed as “Non-toxic”. Further, the IC50 in the series with RAW264.7 [2] worked out at 16.4 µM. With `CC(=O)O[C@H]1C(C)=C[C@]23C(=O)[C@@H](C=C(CO)[C@@H](OC(=O)c4ccccc4)[C@]12O)[C@H]1[C@@H](C[C@H]3C)C1(C)C`, the Activity entry with RAW264.7 [1] is on record as “Non-toxic”. The half-inhibitory concentration (IC50) with RAW264.7 [2] came out at 29.5 µM. The corresponding values for `C=C1[C@@H](OC(C)=O)[C@@H](OC(=O)c2ccccc2)[C@@H](OC(=O)c2cccnc2)C(C)(C)[C@H]2O[C@](O)([C@H](C)C2=O)[C@@]2(OC(C)=O)C[C@H](C)[C@H](OC(C)=O)[C@@H]2[C@H]1OC(C)=O` are “Non-toxic” and 22.1 µM.

With `CC1=C[C@]23C(=O)[C@@H](C=C(CO)[C@@H](O)[C@]2(O)[C@H]1O)[C@H]1[C@@H](C[C@H]3C)C1(C)C` [INGENOL], in the series on RAW264.7 [1], the Activity result is given as “Non-toxic”. Further, in the series on RAW264.7 [2], the IC50 is > 100 µM. As for `CCCCC/C=C\C=C\C(=O)O[C@H]1C(C)=C[C@]23C(=O)[C@@H](C=C(COC(C)=O)[C@@H](O)[C@]12O)[C@H]1[C@@H](C[C@H]3C)C1(C)C`, the Activity result with RAW264.7 [1] is reported as “Non-toxic”. For the same compound, in the series with RAW264.7 [2], the IC50 was 5.1 µM. Take `C=C1[C@@H](OC(C)=O)[C@@H](OC(=O)c2ccccc2)[C@@H](OC(C)=O)C(C)(C)[C@H]2O[C@](O)([C@H](C)C2=O)[C@@]2(OC(C)=O)C[C@H](C)[C@H](OC(C)=O)[C@@H]2[C@H]1OC(C)=O`: the Activity result in the series with RAW264.7 [1] is reported as “Non-toxic”. Besides, in the series with RAW264.7 [2], the half-maximal inhibitory concentration (IC50) was 2.9 µM.

Take `CC(=O)OCC1=C[C@@H]2C(=O)[C@]3(C=C(C)[C@H](O)[C@@]3(O)[C@@H]1O)[C@H](C)C[C@@H]1[C@H]2C1(C)C`: in the series with RAW264.7 [1], the Activity result is “Non-toxic”. For the same compound, the IC50 in the series with RAW264.7 [2] is > 100 µM.

For `N=C(N)NN` [PIMAGEDINE], the IC50 with RAW264.7 [2] was determined as 18.7 µM. Regarding `CCCCC/C=C\C=C\C(=O)O[C@@H]1C(COC(C)=O)=C[C@@H]2C(=O)[C@]3(C=C(C)[C@H](O)[C@@]13O)[C@H](C)C[C@@H]1[C@H]2C1(C)C`, in the series with RAW264.7 [1], the Activity result is reported as “Non-toxic”. For the same compound, in the series on RAW264.7 [2], the IC50 came to 10.1 µM. As for `C=C1[C@H](OC(=O)c2ccccc2)[C@H]2[C@@H](OC(C)=O)[C@](C)(O)[C@@H](O)[C@]2(OC(C)=O)C(=O)[C@@H](C)/C=C/C(C)(C)C(=O)[C@H](O)[C@H]1OC(=O)c1ccccc1`, in the series on RAW264.7 [1], the Activity result is on record as “Non-toxic”. Moreover, the IC50 in the series on RAW264.7 [2] is 46.5 µM. The corresponding values for `CC1=C[C@@H]2C(=O)[C@]3(C=C(C)[C@H](OC(=O)c4ccccc4)[C@@]3(O)[C@@H]1O)[C@H](C)C[C@@H]1[C@H]2C1(C)C` are “Non-toxic” and 16 µM. The corresponding values for `CC1=C[C@@H]2C(=O)[C@]3(C=C(C)[C@H](O)[C@@]3(O)[C@@H]1OC(=O)c1ccccc1)[C@H](C)C[C@@H]1[C@H]2C1(C)C` are “Non-toxic” and 3.1 µM. Taken in the same sequence, the figures for `C=C1[C@@H](OC(C)=O)[C@@H](OC(=O)c2ccccc2)[C@@H](OC(C)=O)C(C)(C)[C@H]2O[C@](O)([C@H](C)C2=O)[C@@]2(OC(C)=O)C[C@@](C)(O)[C@H](OC(C)=O)[C@@H]2[C@H]1OC(C)=O` were “Non-toxic” and 50.2 µM. Regarding `C=C1[C@H](OC(C)=O)[C@@H](OC(=O)c2ccccc2)[C@H](OC(=O)c2cccnc2)C(C)(C)[C@H]2O[C@@H]2[C@@H](C)C(=O)[C@@]2(OC(C)=O)C[C@H](C)[C@H](OC(C)=O)[C@@H]2[C@H]1OC(C)=O`, the Activity entry with RAW264.7 [1] is reported as “Non-toxic”. Also, in the series on RAW264.7 [2], the IC50 worked out at 6.3 µM.

On to `CCCCC/C=C\C=C\C(=O)O[C@H]1C(C)=C[C@]23C(=O)[C@@H](C=C(C)[C@@H](O)[C@]12O)[C@H]1[C@@H](C[C@H]3C)C1(C)C`, for which the Activity result with RAW264.7 [1] is “Non-toxic”. Also, the IC50 in the series on RAW264.7 [2] is 14.1 µM. As to `CCCCC/C=C/C=C/C(=O)O[C@@H]1C(COC(C)=O)=C[C@@H]2C(=O)[C@]3(C=C(C)[C@H](O)[C@@]13O)[C@H](C)C[C@@H]1[C@H]2C1(C)C`, the Activity result in the series on RAW264.7 [1] is recorded as “Non-toxic”. In the series with RAW264.7 [2], the IC50 amounted to 7.6 µM.

With `CCCCC/C=C/C=C/C(=O)O[C@H]1C(C)=C[C@]23C(=O)[C@@H](C=C(COC(C)=O)[C@@H](O)[C@]12O)[C@H]1[C@@H](C[C@H]3C)C1(C)C`, the Activity result with RAW264.7 [1] is on record as “Non-toxic”. In addition, the IC50 in the series with RAW264.7 [2] stood at 0.7 µM.
